The numbers were not newly measured in patent US20260206768A1, “COMBINATION OF VARIOUS NITROGEN FIXING BACTERIA WITH VARIOUS BIOLOGICAL PRODUCTS TO ACHIEVE SYNERGISTIC EFFECTS” (Pivot Bio, Inc., priority 2022, published 2026), which cites them from elsewhere.

For orientation: pKa means the pH at which an ionisable group is half protonated.

For the data set the following is noted: for Useful pH range: buffering range.

Peptide text beside a SMILES is read from it.

For the compound `NC(=O)CNCCS(=O)(=O)O` [ACES], the “pKa at 25° C.” value was 6.78 and the “Useful pH range” value is 6.1-7.5.
Consider `NC(=O)CN(CC(=O)O)CC(=O)O` [ADA], for which the “pKa at 25° C.” value is 6.59 and the “Useful pH range” value is 6.0-7.2.
Take `CC(N)(CO)CO` [AMPD]: the “pKa at 25° C.” value was 8.8 and the “Useful pH range” value is 7.8-9.7.
For `CC(C)(CO)NCC(O)CS(=O)(=O)O` (centres unmarked) [AMPSO], the “pKa at 25° C.” value is 9 and the “Useful pH range” value is 8.3-9.7.
`CC(C)(N)CO` [AMP]: the “pKa at 25° C.” value is 9.7 and the “Useful pH range” value is reported as 9.0-10.5.
In the case of `CC(=O)O` [Acetic acid, Ethanoic acid], the “Useful pH range” value is reported as 3.8-5.8.
Regarding `O=S(=O)(O)CCN(CCO)CCO` [BES], the “pKa at 25° C.” value is 7.09 and the “Useful pH range” value is listed as 6.4-7.8.
With `OCC(CO)(CO)NCCCNC(CO)(CO)CO` [Bis-Tris Propane], the “Useful pH range” value was 6.3-9.5.
As to `OB(O)O` [Boric acid], the “Useful pH range” value is 8.25-10.25.
For `O=S(=O)(O)CCCCNC1CCCCC1` [CABS], the “pKa at 25° C.” value is recorded as 10.7 and the “Useful pH range” value is given as 10.0-11.4.
As to `O=S(=O)(O)CC(O)CNC1CCCCC1` (centres unmarked) [CAPSO], the “Useful pH range” value is given as 8.9-10.3.
With `O=S(=O)(O)CCCNC1CCCCC1` [CAPS], the “pKa at 25° C.” value is reported as 10.4 and the “Useful pH range” value was 9.7-11.1.
With `O=S(=O)(O)CCNC1CCCCC1` [CHES, N-Cyclohexyl-2-aminoethanesulfonic acid], the “Useful pH range” value is 8.3-10.3.
`O=C(O)CC(O)(CC(=O)O)C(=O)O` [Citric acid, 2-Hydroxypropane-1,2,3-tricarboxylic acid]: the “Useful pH range” value was 2.1-7.4.
As for `O=S(=O)(O)CC(O)CN(CCO)CCO` (centres unmarked) [DIPSO], the “pKa at 25° C.” value is on record as 7.6 and the “Useful pH range” value was 7.0-8.2.
For `O=S(=O)(O)CCCN1CCN(CCO)CC1` [EPPS], the “pKa at 25° C.” value is on record as 8 and the “Useful pH range” value is recorded as 7.3-8.7.
In the case of `NCC(=O)NCC(=O)O` [Gly-Gly] (H-Gly-Gly-OH), the “Useful pH range” value is reported as 7.5-8.9.
As for `O=S(=O)(O)CCCCN1CCN(CCO)CC1` [HEPBS], the “pKa at 25° C.” value is given as 8.3 and the “Useful pH range” value is given as 7.6-9.0.
As for `O=P([O-])([O-])O.[K+].[K+]` [K2HPO4, dipotassium phosphate], the “Useful pH range” value was 8.7-9.4.
For `O=P([O-])([O-])[O-].[K+].[K+].[K+]` [K3PO4], the “Useful pH range” value is recorded as 11.5-12.3.
Consider `O=S(=O)(O)CCCCN1CCOCC1` [MOBS], for which the “pKa at 25° C.” value is 7.6 and the “Useful pH range” value is 6.9-8.3.
As to `O=S(=O)(O)CCN1CCN(CCS(=O)(=O)O)CC1` [PIPES, piperazine-N,N′-bis(2-ethanesulfonic acid)], the “pKa at 25° C.” value is given as 6.76 and the “Useful pH range” value is 6.1-7.5.
For the compound `O=S(=O)(O)CC(O)CN1CCN(CC(O)CS(=O)(=O)O)CC1` (centres unmarked) [POPSO], the “pKa at 25° C.” value is 7.8 and the “Useful pH range” value is reported as 7.2-8.5.
`O=S(=O)(O)CCCCNC(CO)(CO)CO` [TABS]: the “pKa at 25° C.” value is given as 8.9 and the “Useful pH range” value is reported as 8.2-9.6.
Take `O=S(=O)(O)CCCNC(CO)(CO)CO` [TAPS, [tris(hydroxymethyl)methylamino]propanesulfonic acid]: the “Useful pH range” value is on record as 7.7-9.1.
With `O=S(=O)(O)CC(O)CNC(CO)(CO)CO` (centres unmarked) [TAPSO, 3-[N-tris(hydroxymethyl)methylamino]-2-hydroxypropanesulfonic acid], the “Useful pH range” value is reported as 7.0-8.2.
Regarding `OCCN(CCO)CCO` [TEA], the “Useful pH range” value is reported as 7.3-8.3.
Consider `O=S(=O)(O)CCNC(CO)(CO)CO` [TES, 2-[[1,3-dihydroxy-2-(hydroxymethyl)propan-2-yl]amino]ethanesulfonic acid], for which the “Useful pH range” value was 6.8-8.2.
`O=C(O)CNC(CO)(CO)CO` [Tricine, N-[tris(hydroxymethyl)methyl]glycine]: the “Useful pH range” value was 7.4-8.8.
